Experimental data reported in US11299485B2, “Thiophene derivative and use thereof” (FUJIMOTO CO., LTD., priority 2018, dated 2022).

Tests used:
Type in all cases: cell-based
Daudi cells = test: Human Burkitt lymphoma cell line Daudi proliferation suppression test; details: 72 h, compound 10 μM, 3 days, WST-8, read-out: cell survival rate (% of control) Daudi
From the text: Example 54: Human Burkitt Lymphoma Cell Line Daudi Proliferation Suppression Test
Daudi cells (National Institutes of Biomedical Innovation, Health and Nutrition (NIBIOHN), JCRB9071) were suspended in medium B, and diluted as appropriate with 0.4% trypan blue solution (Sigma-Aldrich Co. LLC.). The number of viable cells was counted with a hemocytometer (ERMA INC.). A cell suspension obtained by diluting with medium B such that the value obtained was 1.3×10^5 cells/mL was dispensed into a Falcon 96 well flat bottom plate (Corning Incorporated) at 75 μL/well, and culture was started at 37° C. under 5% CO2 stream. The next day, a solution obtained by diluting 4 mM DMSO solution of the test compound 100-fold with medium B was added by 25 μL to each well (final concentration of test compound 10 μM). 25 μL of a solution obtained by diluting DMSO 100-fold with medium B was added to the control well. After culturing at 37° C. in a 5% CO2 stream for 3 days, the cell proliferation activity was measured according to the instruction manual attached to WST-8 Kit (KISHIDA CHEMICAL Co., Ltd.).

TNF-α production = test: Human TNF-α production suppression test (LPS-stimulated peripheral blood mononuclear cells, ELISA); details: PBMC, compound 10 μg/mL, 24 hr, control well = 100, read-out: TNF-α production suppressive rate (%)
Experimental: Example 50: Human TNF-α Production Suppression Test
Peripheral blood of a healthy adult was collected in a vacuum blood collection tube (Terumo, containing EDTA/2Na), and then diluted two-fold with an equal volume of OTSUKA NORMAL SALINE (Otsuka Pharmaceutical Co., Ltd.). The diluted blood was mixed with Lymphoprep (AXIS-SHIELD) in half the volume of the diluted blood, dispensed into a 15 mL conical tube, and centrifuged at room temperature for 20 min (2,100 rpm). The mononuclear cells accumulated at the interface between Lymphoprep and plasma was transferred to a 50 mL conical tube, diluted with OTSUKA NORMAL SALINE, and the mononuclear cells suspension was centrifuged at room temperature for 10 min (1,150 rpm) and then the supernatant was removed. The mononuclear cells fraction obtained as a precipitate was suspended in an appropriate amount of 10% fetal calf serum (Thermo Fisher Scientific)-containing RPMI1640 medium (Thermo Fisher Scientific, hereinafter abbreviated as medium A), and diluted as appropriate with 0.4% trypan blue solution (Sigma-Aldrich Co. LLC.). The number of viable cells was counted with a hemocytometer (ERMA INC.). It was diluted with medium A such that the value obtained was 5×10^5 cells/mL. On the other hand, 75 μL of medium A, 5 μL of 0.4 mg/mL test compound solution (DMSO solution 10-fold diluted with medium A), and 20 μL of 10 μg/mL lipopolysaccharide (Sigma-Aldrich Co. LLC.) solution (diluted with medium A) were each added in advance to the same well of a Falcon 96-well flat bottom plate (Corning Incorporated), and the above-mentioned cell suspension was dispensed at 0.1 mL/well. 5 μL of DMSO diluted 10-fold with medium A was added to the control well instead of the compound solution. After culturing at 37° C. in a 5% CO2 stream for 24 hr, the culture solution was centrifuged at 4° C., 1,000 rpm for 3 min and the supernatant was recovered. The content of TNF-α in the supernatant was measured using an ELISA kit (Peprotech) according to a conventional method. The amount of TNF-α produced in the well containing the test compound was determined with the amount of TNF-α produced in the control well as 100, and the suppression rate was calculated for each test.

Kasumi-7 cells = test: Human acute lymphoblastic leukemia cell line Kasumi-7 proliferation suppression test; details: 72 h, compound 10 μM, 3 days, WST-8, read-out: cell survival rate (% of control) Kasumi-7
From the text: Example 55: Human Acute Lymphoblastic Leukemia Cell Line Kasumi-7 Proliferation Suppression Test
Kasumi-7 cells (NIBIOHN, JCRB1401) were suspended in 20% fetal calf serum (Thermo Fisher Scientific, Inc.)-containing RPMI1640 medium (ATCC, hereinafter abbreviated as medium C), and diluted as appropriate with 0.4% trypan blue solution (Sigma-Aldrich Co. LLC.). The number of viable cells was counted with a hemocytometer (Funakoshi Co., Ltd.). A cell suspension obtained by diluting with medium C such that the value obtained was 1.3×10^5 cells/mL was dispensed into a Falcon 96 well flat bottom plate (Corning Incorporated) at 75 μL/well, and culture was started at 37° C. under 5% CO2 stream. The next day, a solution obtained by diluting 4 mM DMSO solution of the test compound 100-fold with medium C was added by 25 μL to each well (final concentration of test compound 10 μM). 25 μL of a solution obtained by diluting DMSO 100-fold with medium C was added to the control well. After culturing at 37° C. in a 5% CO2 stream for 3 days, the cell proliferation activity was measured according to the instruction manual attached to WST-8 Kit (KISHIDA CHEMICAL Co., Ltd.).

O=C1CCC(n2cc(-c3cscc3Br)nn2)C(=O)N1 (stereo not drawn) [compound 1, 3-[4-(4-bromothiophen-3-yl)-1H-1,2,3-triazol-1-yl]piperidine-2,6-dione]
viability at 10 µM (Daudi cells): 61%
inhibition at 10 µg/mL (TNF-α production): 90%
viability at 10 µM (Kasumi-7 cells): 65%

O=C1CCC(n2cc(-c3ccsc3)nn2)C(=O)N1 (stereo not drawn) [compound 2, 3-[4-(thiophen-3-yl)-1H-1,2,3-triazol-1-yl]piperidine-2,6-dione]
viability at 10 µM (Daudi cells): 71%
inhibition at 10 µg/mL (TNF-α production): 98%
viability at 10 µM (Kasumi-7 cells): 68%

O=C1CCC(n2cc(-c3cccs3)nn2)C(=O)N1 (stereo not drawn) [compound 3, 3-[4-(thiophen-2-yl)-1H-1,2,3-triazol-1-yl]piperidine-2,6-dione]
viability at 10 µM (Daudi cells): 78%
inhibition at 10 µg/mL (TNF-α production): 59%
viability at 10 µM (Kasumi-7 cells): 81%

O=C1CCC(n2nnc(-c3ccsc3)c2Cl)C(=O)N1 (stereo not drawn) [compound 4, 3-[5-chloro-4-(thiophen-3-yl)-1H-1,2,3-triazol-1-yl]piperidine-2,6-dione]
viability at 10 µM (Daudi cells): 82%
inhibition at 10 µg/mL (TNF-α production): 67%
viability at 10 µM (Kasumi-7 cells): 91%

Cc1ccc(-c2cn(C3CCC(=O)NC3=O)nn2)s1 (stereo not drawn) [compound 5, 3-[4-(5-methylthiophen-2-yl)-1H-1,2,3-triazol-1-yl]piperidine-2,6-dione]
viability at 10 µM (Daudi cells): 82%
inhibition at 10 µg/mL (TNF-α production): 71%
viability at 10 µM (Kasumi-7 cells): 72%

Cc1cc(-c2cn(C3CCC(=O)NC3=O)nn2)cs1 (stereo not drawn) [compound 6, 3-[4-(5-methylthiophen-3-yl)-1H-1,2,3-triazol-1-yl]piperidine-2,6-dione]
viability at 10 µM (Daudi cells): 79%
inhibition at 10 µg/mL (TNF-α production): 67%
viability at 10 µM (Kasumi-7 cells): 72%

Cc1cscc1-c1cn(C2CCC(=O)NC2=O)nn1 (stereo not drawn) [compound 7, 3-[4-(4-methylthiophen-3-yl)-1H-1,2,3-triazol-1-yl]piperidine-2,6-dione]
viability at 10 µM (Daudi cells): 75%
inhibition at 10 µg/mL (TNF-α production): 73%
viability at 10 µM (Kasumi-7 cells): 69%

CC(=O)c1ccc(-c2cn(C3CCC(=O)NC3=O)nn2)s1 (stereo not drawn) [compound 8, 3-[4-(5-acetylthiophen-2-yl)-1H-1,2,3-triazol-1-yl]piperidine-2,6-dione]
viability at 10 µM (Daudi cells): 93%
inhibition at 10 µg/mL (TNF-α production): 64%
viability at 10 µM (Kasumi-7 cells): 94%

O=C1CCC(n2cc(-c3csc(CO)c3)nn2)C(=O)N1 (stereo not drawn) [compound 9, 3-{4-[5-(hydroxymethyl)thiophen-3-yl]-1H-1,2,3-triazol-1-yl}piperidine-2,6-dione]
viability at 10 µM (Daudi cells): 83%
inhibition at 10 µg/mL (TNF-α production): 41%
viability at 10 µM (Kasumi-7 cells): 90%

O=C1CCC(n2cc(-c3scc4c3OCCO4)nn2)C(=O)N1 (stereo not drawn) [compound 10, 3-[4-(2,3-dihydrothieno[3,4-b][1,4]dioxin-5-yl)-1H-1,2,3-triazol-1-yl]piperidine-2,6-dione]
viability at 10 µM (Daudi cells): 85%
inhibition at 10 µg/mL (TNF-α production): 50%
viability at 10 µM (Kasumi-7 cells): 72%

O=C1CCC(n2cc(-c3ccc(Cl)s3)nn2)C(=O)N1 (stereo not drawn) [compound 11, 3-[4-(5-chlorothiophen-2-yl)-1H-1,2,3-triazol-1-yl]piperidine-2,6-dione]
viability at 10 µM (Daudi cells): 94%
inhibition at 10 µg/mL (TNF-α production): 81%
viability at 10 µM (Kasumi-7 cells): 78%

O=C1CCC(n2cc(-c3ccc(Br)s3)nn2)C(=O)N1 (stereo not drawn) [compound 12, 3-[4-(5-bromothiophen-2-yl)-1H-1,2,3-triazol-1-yl]piperidine-2,6-dione]
viability at 10 µM (Daudi cells): 87%
inhibition at 10 µg/mL (TNF-α production): 84%
viability at 10 µM (Kasumi-7 cells): 89%

O=C1CCC(n2cc(-c3cc(Br)sc3Br)nn2)C(=O)N1 (stereo not drawn) [compound 13, 3-[4-(2,5-dibromothiophen-3-yl)-1H-1,2,3-triazol-1-yl]piperidine-2,6-dione]
viability at 10 µM (Daudi cells): 95%
inhibition at 10 µg/mL (TNF-α production): 35%
viability at 10 µM (Kasumi-7 cells): 93%

O=C1CCC(n2cc(-c3cscc3Cl)nn2)C(=O)N1 (stereo not drawn) [compound 14, 3-[4-(4-chlorothiophen-3-yl)-1H-1,2,3-triazol-1-yl]piperidine-2,6-dione]
viability at 10 µM (Daudi cells): 49%
inhibition at 10 µg/mL (TNF-α production): 75%
viability at 10 µM (Kasumi-7 cells): 64%
